For experiment [1], the system named is Escherichia coli. In words: Antibacterial activity against Escherichia coli ATCC 8739 assessed as bacterial growth inhibition by agar dilution method. It is filed as functional.
The test system of a further experiment is Enterobacter cloacae. In words: Antibacterial activity against Enterobacter cloacae PTCC 1003 assessed as bacterial growth inhibition by agar dilution method. The format is functional.
The subject of experiment [2] is Klebsiella pneumoniae. In words: Antibacterial activity against Klebsiella pneumoniae ATCC 10031 assessed as bacterial growth inhibition by agar dilution method. It is filed as functional. Background: In agar dilution, organisms are placed on agar that contains the substance at set levels.
Experiment [3] has as its system Staphylococcus aureus. In words: Antibacterial activity against Staphylococcus aureus ATCC 25923 assessed as bacterial growth inhibition by microdilution assay. The format is functional. (In general: Dilution methods test growth across graded concentrations, often in twofold steps.)
Experiment [4] relates to Staphylococcus aureus. In words: Antibacterial activity against clinical isolate methicillin resistant Staphylococcus aureus assessed as bacterial growth inhibition by microdilution assay. The format is functional.
The subject of experiment [5] is Klebsiella pneumoniae. In words: Antibacterial activity against Klebsiella pneumoniae assessed as bacterial growth inhibition by agar streak dilution assay. It is filed as functional.
Experiment [6] has as its system Staphylococcus aureus. In words: Antibacterial activity against Staphylococcus aureus assessed as bacterial growth inhibition by agar streak dilution assay. It is filed as functional.
In experiment [7] the test system is Escherichia coli. In words: Antibacterial activity against Escherichia coli assessed as bacterial growth inhibition by agar streak dilution assay. It is filed as functional.
The next experiment concerns Aspergillus niger. In words: Antifungal activity against Aspergillus niger assessed as fungal growth inhibition by agar cup diffusion assay. The format is functional.
For experiment [8], the system named is Escherichia coli. In words: Antibacterial activity against Escherichia coli assessed as bacterial growth inhibition by agar cup diffusion assay. It is filed as functional.
The next experiment has as its system Aspergillus fumigatus. In words: Antifungal activity against Aspergillus fumigatus assessed as fungal growth inhibition by agar cup diffusion assay. It is filed as functional.
Experiment [9] deals with Pseudomonas aeruginosa. In words: Antibacterial activity against Pseudomonas aeruginosa assessed as bacterial growth inhibition by agar cup diffusion assay. The format is functional.
In experiment [10] the test system is Staphylococcus aureus. In words: Antibacterial activity against methicillin resistant Staphylococcus aureus assessed as bacterial growth inhibition by agar cup diffusion assay. The format is functional.
Experiment [11] relates to Staphylococcus aureus. In words: Antibacterial activity against Staphylococcus aureus assessed as bacterial growth inhibition by agar cup diffusion assay. It is filed as functional.
Experiment [12] has as its system Klebsiella pneumoniae. In words: Antibacterial activity against Klebsiella pneumoniae AUMC B-77 assessed as bacterial growth inhibition by agar cup diffusion method. It is filed as functional.
Experiment [13] is described as follows: Anticancer activity against EAC cell assessed as cell growth inhibition measured after 24 to 72 hrs by MTT assay. The format is functional, cell-based. The settings on record: Ehrlich. A general note: Formazan colour is commonly taken as a measure of viable cells.
The next experiment has as its system WRL68. In words: Anticancer activity against human WRL68 cell assessed as cell growth inhibition measured after 24 to 72 hrs by MTT assay. It is filed as functional, cell-based.
A further experiment has as its system HT-29. In words: Anticancer activity against human HT-29 cell assessed as cell growth inhibition measured after 24 to 72 hrs by MTT assay. It is filed as functional, cell-based.
The subject of experiment [14] is Mycobacterium tuberculosis. In words: Antimycobacterial activity against Mycobacterium tuberculosis H37Rv assessed as bacterial growth inhibition by broth microdilution assay. The format is functional.
Experiment [15] deals with Staphylococcus aureus. In words: Antibacterial activity against Staphylococcus aureus assessed as bacterial growth inhibition by broth microdilution assay. It is filed as functional.
In experiment [16] the test system is Klebsiella pneumoniae. In words: Antibacterial activity against Klebsiella pneumoniae assessed as bacterial growth inhibition by two fold microdilution assay. It is filed as functional.
Experiment [17] has as its system Escherichia coli. In words: Antibacterial activity against Escherichia coli ATCC 8739 assessed as bacterial growth inhibition by two fold microdilution assay. The format is functional.
Experiment [18] has as its system Staphylococcus aureus. In words: Antibacterial activity against Staphylococcus aureus assessed as bacterial growth inhibition by agar dilution assay. The format is functional.
Experiment [19] concerns Escherichia coli. In words: Antibacterial activity against Escherichia coli assessed as bacterial growth inhibition by broth microdilution assay. It is filed as functional.
For the next experiment, the system named is Acinetobacter baumannii. In words: Antibacterial activity against Acinetobacter baumannii assessed as bacterial growth inhibition by agar dilution assay. The format is functional.
The test system of experiment [20] is Pseudomonas aeruginosa. In words: Antibacterial activity against Pseudomonas aeruginosa assessed as bacterial growth inhibition by broth microdilution assay. The format is functional.
The test system of experiment [21] is Pseudomonas aeruginosa. In words: Antibacterial activity against Pseudomonas aeruginosa ATCC 27853 assessed as bacterial growth inhibition by agar dilution assay. The format is functional.
In experiment [22] the test system is Staphylococcus aureus. In words: Antibacterial activity against methicillin resistant Staphylococcus aureus assessed as bacterial growth inhibition by agar dilution assay. The format is functional.
Experiment [23] has as its system Staphylococcus aureus. In words: Antibacterial activity against Staphylococcus aureus ATCC 6538P assessed as bacterial growth inhibition by two fold microdilution assay. It is filed as functional.

The values that follow come from ChEMBL document CHEMBL5360532, “Current scenario of quinolone hybrids with potential antibacterial activity against ESKAPE pathogens” (Eur J Med Chem, 2023).

≈ marks a conversion by molar mass, not a printed value.

Consider `CC(=O)C(C(C)=O)C(=O)c1cn(C2CC2)c2cc(N3CCN(/N=N/c4nc(C)cc(C)n4)CC3)c(F)cc2c1=O`, for which the MIC in the experiment with Escherichia coli [1], in the experiment on Enterobacter cloacae and in the experiment with Klebsiella pneumoniae [2] was 0.015 µg/mL (≈ 0.0274 µM) each time.

Take `COc1c(N2C[C@H]3CCCN(S(=O)(=O)c4ccc(F)cc4)[C@H]3C2)c(F)cc2c(=O)c(C(=O)O)cn(C3CC3)c12`: the MIC with Staphylococcus aureus [3] and with Staphylococcus aureus [4] was less than 2.64 µg/mL each time.

Consider `COc1ccc(S(=O)(=O)N2CCC[C@@H]3CN(c4c(F)cc5c(=O)c(C(=O)O)cn(C6CC6)c5c4OC)C[C@@H]32)cc1`, for which the MIC in the experiment with Staphylococcus aureus [3] and in the experiment with Staphylococcus aureus [4] was less than 2.64 µg/mL each time.

For the compound `COc1c(N2C[C@H]3CCCN(S(=O)(=O)c4ccc(Cl)cc4)[C@H]3C2)c(F)cc2c(=O)c(C(=O)O)cn(C3CC3)c12`, the MIC with Staphylococcus aureus [3] and in the experiment with Staphylococcus aureus [4] was less than 2.64 µg/mL in each case.

In the case of `COc1c(N2CCN([S+]([O-])c3ccc(N)c(C)c3)C(C)C2)c(F)c(C)c2c(=O)c(C(=O)O)cn(C3CC3)c12` (configuration not stated), the minimum inhibitory concentration (MIC) in the experiment with Klebsiella pneumoniae [5], with Staphylococcus aureus [6] and in the experiment on Escherichia coli [7] was 0.9 µg/mL (≈ 1.66 µM) in each case.

Turning to `CNc1ccc([S+]([O-])N2CCN(c3c(F)c(C)c4c(=O)c(C(=O)O)cn(C5CC5)c4c3OC)CC2C)cc1C` (configuration not stated), the MIC in the experiment with Klebsiella pneumoniae [5], with Staphylococcus aureus [6] and with Escherichia coli [7] was 0.9 µg/mL (≈ 1.62 µM) throughout.

For the compound `Nc1ccc(-c2nnc(-c3cn(C4CC4)c4cc(N5CCNCC5)c(F)cc4c3=O)o2)c(O)c1`, the MIC in the experiment on Aspergillus niger was determined as 9.8 µg/mL (≈ 21.2 µM); in the experiment with Escherichia coli [8] it was 0.3 µg/mL (≈ 0.649 µM); in the experiment on Aspergillus fumigatus, 9.8 µg/mL (≈ 21.2 µM); in the experiment on Pseudomonas aeruginosa [9], 0.3 µg/mL (≈ 0.649 µM).

As for `O=C(O)c1cn(C2CC2)c2cc(N3CCN(C(=O)CN4C(=O)S/C(=C\c5ccco5)C4=O)CC3)c(F)cc2c1=O`, the MIC in the experiment with Staphylococcus aureus [10] came to 0.22 µg/mL (≈ 0.388 µM); in the experiment on Staphylococcus aureus [11], 0.005 µg/mL (≈ 0.00883 µM).

As to `O=C(O)c1cn(C2CC2)c2cc(N3CCN(C(=O)CN4C(=O)S/C(=C\c5ccccc5)C4=O)CC3)c(F)cc2c1=O`, the MIC in the experiment on Staphylococcus aureus [10] came to 0.02 µg/mL (≈ 0.0347 µM); with Staphylococcus aureus [11] it was 0.005 µg/mL (≈ 0.00867 µM).

With `CCn1cc(C(=O)O)c(=O)c2cc(F)c(N3CCN(CC(=O)Nc4ccc(/C(C)=N/O)cc4)CC3)cc21`, the MIC in the experiment with Klebsiella pneumoniae [12] was found to be 0.08 µg/mL (≈ 0.157 µM).

Take `Nc1ccc(-c2nnc(-c3cn(C4CC4)c4cc(C(=O)c5ncc[nH]5)c(F)cc4c3=O)o2)c(O)c1`: the MIC in the experiment with Aspergillus niger was determined as 9.8 µg/mL (≈ 20.7 µM); with Escherichia coli [8] it was 0.2 µg/mL (≈ 0.423 µM); in the experiment on Aspergillus fumigatus, 9.8 µg/mL (≈ 20.7 µM); with Pseudomonas aeruginosa [9] it was 0.2 µg/mL (≈ 0.423 µM).

As for `COc1cccc2c1C(=O)c1c(O)c3c(c(O)c1C2=O)C[C@@](O)(C(=O)CO)C[C@@H]3O[C@H]1C[C@H](N)[C@H](O)[C@H](C)O1` [DOXORUBICIN], the IC50 (in experiment [13]; in the experiment with WRL68; with HT-29) was 259 nM each time.

In the case of `Cc1c(F)c(N2CCNC(C)C2)cc2c1c(=O)c(C(=O)O)cn2C1CC1` (configuration not stated) [GREPAFLOXACIN], the MIC with Klebsiella pneumoniae [5], with Staphylococcus aureus [6] and in the experiment with Escherichia coli [7] was 0.5 µg/mL (≈ 1.39 µM) each time.

Regarding `NNC(=O)c1ccncc1` [ISONIAZID], the MIC in experiment [14] came out at 1.5 µg/mL (≈ 10.9 µM).

With `CCn1cc(C(=O)O)c(=O)c2cc(F)c(N3CCNCC3)cc21` [NORFLOXACIN], the MIC in the experiment with Klebsiella pneumoniae [12] was 0.5 µg/mL (≈ 1.57 µM); in the experiment on Staphylococcus aureus [15] it was no more than 0.125 µg/mL; in the experiment with Klebsiella pneumoniae [16], no more than 0.125 µg/mL; with Escherichia coli [17], no more than 0.125 µg/mL; with Staphylococcus aureus [18], no less than 4 µg/mL; with Escherichia coli [19], no more than 0.125 µg/mL. Further, the MIC in the experiment with Acinetobacter baumannii is no less than 4 µg/mL; with Pseudomonas aeruginosa [20] it was no more than 0.125 µg/mL; in the experiment on Pseudomonas aeruginosa [21], no less than 4 µg/mL; with Staphylococcus aureus [22], no less than 4 µg/mL; in the experiment with Staphylococcus aureus [23], no more than 0.125 µg/mL.

For `CO[C@H]1/C=C/O[C@@]2(C)Oc3c(C)c(O)c4c(O)c(c(/C=N/N5CCN(C)CC5)c(O)c4c3C2=O)NC(=O)/C(C)=C\C=C\[C@H](C)[C@H](O)[C@@H](C)[C@@H](O)[C@@H](C)[C@H](OC(C)=O)[C@@H]1C` [RIFAMPIN], the MIC in experiment [14] worked out at 1 µg/mL (≈ 1.22 µM).

Broadly, the MIC is the smallest concentration in the dilution series that meets the test's criterion for growth inhibition. What is called IC50 is the point on the concentration scale where inhibition reaches its midpoint.
